# Source: PubChem BioAssay (NCI)
#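 Dose response: 5 concentrations. Exposure: 48 h. Format: 96-well plates. Endpoint: linear interpolation; highest concentration if not reached. Abbreviation: GI50, concentration required for 50% inhibition of growth. TGI: concentration producing complete growth inhibition.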
# Legend:
# Assay in all cases: NCI anticancer screen, dose series, 48 h
# 786-0 renal = system: 786-0 renal
# MALME-3M melanoma = system: MALME-3M melanoma
# HCC-2998 colon = system: HCC-2998 colon
# UACC-257 melanoma = system: UACC-257 melanoma
# OVCAR-3 ovarian = system: OVCAR-3 ovarian
# SF-539 CNS = system: SF-539 CNS
# ACHN renal = system: ACHN renal
compound,measurement,setting,value
Nc1nc(-c2cccs2)cs1,TGI,786-0 renal,> 100 µM
same,TGI,MALME-3M melanoma,> 100 µM
same,TGI,HCC-2998 colon,> 100 µM
same,TGI,UACC-257 melanoma,> 100 µM
same,TGI,OVCAR-3 ovarian,> 100 µM
same,TGI,SF-539 CNS,> 100 µM
same,TGI,ACHN renal,> 100 µM
COc1ccc2c(c1)C(=O)c1c-2c(NCCN(C)C)nc2ccccc12,GI50,786-0 renal,2.65 µM
same,TGI,786-0 renal,9.1 µM
same,GI50,MALME-3M melanoma,12.4 µM
same,TGI,MALME-3M melanoma,32.7 µM
same,GI50,HCC-2998 colon,2.52 µM
same,TGI,HCC-2998 colon,13.4 µM
same,GI50,UACC-257 melanoma,4.6 µM
same,TGI,UACC-257 melanoma,17.5 µM
same,GI50,OVCAR-3 ovarian,2.29 µM
same,TGI,OVCAR-3 ovarian,9.34 µM
same,GI50,SF-539 CNS,12.4 µM
same,TGI,SF-539 CNS,25.2 µM
same,GI50,ACHN renal,1.17 µM
same,TGI,ACHN renal,6.43 µM
Cc1nc2sc(C(=O)Nc3cccc(Br)c3)c(N)c2cc1C(O)c1ccccc1 (stereo not drawn),GI50,786-0 renal,1.6 µM
same,TGI,786-0 renal,18.4 µM
same,GI50,MALME-3M melanoma,0.761 µM
same,TGI,MALME-3M melanoma,22.3 µM
same,GI50,HCC-2998 colon,2.4 µM
same,TGI,HCC-2998 colon,12.1 µM
same,GI50,UACC-257 melanoma,0.847 µM
same,TGI,UACC-257 melanoma,25.2 µM
same,GI50,OVCAR-3 ovarian,0.392 µM
same,TGI,OVCAR-3 ovarian,6.23 µM
same,GI50,SF-539 CNS,0.558 µM
same,TGI,SF-539 CNS,5.4 µM
same,GI50,ACHN renal,0.768 µM
same,TGI,ACHN renal,14.7 µM
Clc1ccc2c(NCCNc3nc(N4CCCC4)nc4ccccc34)ccnc2c1,GI50,786-0 renal,1.17 µM
same,TGI,786-0 renal,3.18 µM
same,GI50,MALME-3M melanoma,1.91 µM
same,TGI,MALME-3M melanoma,3.6 µM
same,GI50,HCC-2998 colon,1.78 µM
same,TGI,HCC-2998 colon,4.37 µM
same,GI50,UACC-257 melanoma,1.96 µM
same,TGI,UACC-257 melanoma,3.76 µM
same,GI50,OVCAR-3 ovarian,0.492 µM
same,TGI,OVCAR-3 ovarian,1.07 µM
same,GI50,SF-539 CNS,1.76 µM
same,TGI,SF-539 CNS,3.25 µM
same,GI50,ACHN renal,1.64 µM
same,TGI,ACHN renal,3 µM
COc1cc2c3c(n(CCCN4CCCC(O)C4)c(=O)c2cc1OC)-c1cc2c(cc1C3=O)OCO2 (stereo not drawn),GI50,786-0 renal,0.0277 µM
same,TGI,786-0 renal,0.115 µM
same,GI50,MALME-3M melanoma,5.71 µM
same,TGI,MALME-3M melanoma,14.8 µM
same,GI50,HCC-2998 colon,0.0763 µM
same,TGI,HCC-2998 colon,1.05 µM
same,GI50,UACC-257 melanoma,7.74 µM
same,TGI,UACC-257 melanoma,15.1 µM
same,GI50,OVCAR-3 ovarian,2.14 µM
same,TGI,OVCAR-3 ovarian,4.71 µM
same,GI50,SF-539 CNS,< 0.005 µM
same,TGI,SF-539 CNS,0.0384 µM
same,GI50,ACHN renal,< 0.005 µM
same,TGI,ACHN renal,0.32 µM
Cc1cc2nc(C(Cl)Cl)nc(-c3ccccc3)n2n1,GI50,786-0 renal,52.9 µM
same,TGI,786-0 renal,> 100 µM
same,GI50,MALME-3M melanoma,9.11 µM
same,TGI,MALME-3M melanoma,28.1 µM
same,GI50,HCC-2998 colon,1.79 µM
same,TGI,HCC-2998 colon,3.49 µM
same,GI50,UACC-257 melanoma,7.35 µM
same,TGI,UACC-257 melanoma,34.2 µM
same,GI50,OVCAR-3 ovarian,2.11 µM
same,TGI,OVCAR-3 ovarian,4.53 µM
same,GI50,SF-539 CNS,3.94 µM
same,TGI,SF-539 CNS,25 µM
same,GI50,ACHN renal,1.87 µM
same,TGI,ACHN renal,5.12 µM
C=C(C)[C@@H]1CC[C@]2(C(N)=O)CC[C@]3(C)[C@H](CC[C@@H]4[C@@]5(C)C/C(=C/c6cccnc6)[C@H](O)C(C)(C)[C@@H]5CC[C@]43C)[C@@H]12,GI50,786-0 renal,6.24 µM
same,TGI,786-0 renal,> 100 µM
same,GI50,MALME-3M melanoma,4.91 µM
same,TGI,MALME-3M melanoma,> 100 µM
same,GI50,HCC-2998 colon,4.66 µM
same,TGI,HCC-2998 colon,> 100 µM
same,GI50,UACC-257 melanoma,5.83 µM
same,TGI,UACC-257 melanoma,> 100 µM
same,GI50,OVCAR-3 ovarian,5.02 µM
same,TGI,OVCAR-3 ovarian,> 100 µM
same,GI50,SF-539 CNS,4.89 µM
same,TGI,SF-539 CNS,> 100 µM
same,GI50,ACHN renal,3.53 µM
same,TGI,ACHN renal,> 100 µM
O=[N+]([O-])c1cc2c(c([N+](=O)[O-])c1)Nc1ccccc1O2,GI50,786-0 renal,5.81 µM
same,TGI,786-0 renal,39.1 µM
same,GI50,MALME-3M melanoma,4.08 µM
same,TGI,MALME-3M melanoma,> 100 µM
same,GI50,HCC-2998 colon,7.75 µM
same,TGI,HCC-2998 colon,> 100 µM
same,GI50,UACC-257 melanoma,3.74 µM
same,TGI,UACC-257 melanoma,39.1 µM
same,GI50,OVCAR-3 ovarian,3.69 µM
same,TGI,OVCAR-3 ovarian,> 100 µM
same,GI50,SF-539 CNS,13.3 µM
same,TGI,SF-539 CNS,74.6 µM
same,GI50,ACHN renal,6.97 µM
same,TGI,ACHN renal,76.2 µM
CC(CN)[C@@H]1CC[C@]2(CO)CC[C@]3(C)[C@H](CC[C@@H]4[C@@]5(C)CCC(N)C(C)(C)[C@@H]5CC[C@]43C)[C@@H]12 (stereo partly drawn),GI50,786-0 renal,1.58 µM
same,TGI,786-0 renal,3.38 µM
same,GI50,MALME-3M melanoma,1.54 µM
same,TGI,MALME-3M melanoma,3.29 µM
same,GI50,HCC-2998 colon,1.89 µM
same,TGI,HCC-2998 colon,3.66 µM
same,GI50,UACC-257 melanoma,1.85 µM
same,TGI,UACC-257 melanoma,3.28 µM
same,GI50,OVCAR-3 ovarian,1.71 µM
same,TGI,OVCAR-3 ovarian,3.24 µM
same,GI50,SF-539 CNS,1.72 µM
same,TGI,SF-539 CNS,3.31 µM
same,GI50,ACHN renal,1.77 µM
same,TGI,ACHN renal,3.22 µM
COc1cnc2c(c1)C(=O)c1c-2n(CCCNC(C)C)c(=O)c2cc([N+](=O)[O-])ccc12,GI50,786-0 renal,0.0351 µM
same,TGI,786-0 renal,0.156 µM
same,GI50,MALME-3M melanoma,0.118 µM
same,TGI,MALME-3M melanoma,0.356 µM
same,GI50,HCC-2998 colon,0.109 µM
same,TGI,HCC-2998 colon,0.269 µM
same,GI50,UACC-257 melanoma,0.195 µM
same,TGI,UACC-257 melanoma,1.44 µM
same,GI50,OVCAR-3 ovarian,0.0824 µM
same,TGI,OVCAR-3 ovarian,0.247 µM
same,GI50,SF-539 CNS,0.0519 µM
same,TGI,SF-539 CNS,0.204 µM
same,GI50,ACHN renal,0.0267 µM
same,TGI,ACHN renal,0.121 µM
c1ccc2c3c(ccc2c1)-c1c(ccc2c(NCCCCN4CCCCC4)cccc12)C3,GI50,786-0 renal,1.76 µM
same,TGI,786-0 renal,3.14 µM
same,GI50,HCC-2998 colon,1.63 µM
same,TGI,HCC-2998 colon,3.49 µM
same,GI50,UACC-257 melanoma,1.89 µM
same,TGI,UACC-257 melanoma,4.92 µM
same,GI50,OVCAR-3 ovarian,1.21 µM
same,TGI,OVCAR-3 ovarian,2.52 µM
same,GI50,SF-539 CNS,1.79 µM
same,TGI,SF-539 CNS,3.44 µM
same,GI50,ACHN renal,1.61 µM
same,TGI,ACHN renal,2.99 µM
CCN(CC)CC[n+]1cc2cc(OC)c(OC)cc2c2ccc3cc4c(cc3c21)OCO4,GI50,786-0 renal,0.903 µM
same,TGI,786-0 renal,3.78 µM
same,GI50,MALME-3M melanoma,1.1 µM
same,TGI,MALME-3M melanoma,2.5 µM
same,GI50,HCC-2998 colon,0.725 µM
same,TGI,HCC-2998 colon,2.15 µM
same,GI50,UACC-257 melanoma,1.45 µM
same,TGI,UACC-257 melanoma,3.36 µM
same,GI50,OVCAR-3 ovarian,0.96 µM
same,TGI,OVCAR-3 ovarian,2.33 µM
same,GI50,SF-539 CNS,1.12 µM
same,TGI,SF-539 CNS,3.16 µM
same,GI50,ACHN renal,1.25 µM
same,TGI,ACHN renal,4.07 µM
Fc1cccc(-c2[nH]nc3nc(Nc4cccnc4)sc23)c1,GI50,786-0 renal,> 100 µM
same,TGI,786-0 renal,> 100 µM
same,GI50,MALME-3M melanoma,39.8 µM
same,TGI,MALME-3M melanoma,> 100 µM
same,GI50,HCC-2998 colon,> 100 µM
same,TGI,HCC-2998 colon,> 100 µM
same,GI50,UACC-257 melanoma,> 100 µM
same,TGI,UACC-257 melanoma,> 100 µM
same,GI50,OVCAR-3 ovarian,1.68 µM
same,TGI,OVCAR-3 ovarian,13.5 µM
same,GI50,SF-539 CNS,3.02 µM
same,TGI,SF-539 CNS,> 100 µM
same,GI50,ACHN renal,56.6 µM
same,TGI,ACHN renal,> 100 µM
C=CCSSc1ncnc2c1ncn2C1OC(CO)C(O)C1O (stereo not drawn),GI50,786-0 renal,2.35 µM
same,TGI,786-0 renal,> 86.9 µM
same,GI50,MALME-3M melanoma,2.48 µM
same,TGI,MALME-3M melanoma,> 47.4 µM
same,GI50,HCC-2998 colon,3.06 µM
same,TGI,HCC-2998 colon,60 µM
same,GI50,UACC-257 melanoma,6.79 µM
same,TGI,UACC-257 melanoma,> 86.1 µM
same,GI50,OVCAR-3 ovarian,0.829 µM
same,TGI,OVCAR-3 ovarian,> 32.7 µM
same,GI50,SF-539 CNS,2.28 µM
same,TGI,SF-539 CNS,21 µM
same,GI50,ACHN renal,3.34 µM
same,TGI,ACHN renal,> 100 µM
Nc1ncnc2c1ncn2C1OC(COC2C(CO)OC(OC(C(=O)O)C(O)C(OP(=O)(O)O)C(O)C(=O)O)C(O)C2O)C(O)C1O (stereo not drawn),TGI,786-0 renal,> 100 µM
same,TGI,MALME-3M melanoma,> 100 µM
same,TGI,HCC-2998 colon,> 100 µM
same,TGI,UACC-257 melanoma,> 100 µM
same,TGI,OVCAR-3 ovarian,> 100 µM
same,TGI,SF-539 CNS,> 100 µM
same,TGI,ACHN renal,> 100 µM
N#Cc1nn(-c2cc(=O)[nH]c3ccc(Br)cc23)c(N)c1C#N,GI50,786-0 renal,> 100 µM
same,TGI,786-0 renal,> 100 µM
same,GI50,MALME-3M melanoma,> 100 µM
same,TGI,MALME-3M melanoma,> 100 µM
same,GI50,HCC-2998 colon,> 100 µM
same,TGI,HCC-2998 colon,> 100 µM
same,GI50,UACC-257 melanoma,> 100 µM
same,TGI,UACC-257 melanoma,> 100 µM
same,GI50,OVCAR-3 ovarian,> 100 µM
same,TGI,OVCAR-3 ovarian,> 100 µM
same,GI50,SF-539 CNS,51.7 µM
same,TGI,SF-539 CNS,> 100 µM
same,GI50,ACHN renal,> 100 µM
same,TGI,ACHN renal,> 100 µM
